Data from BigSolDB 2.1.

N#Cc1ccccc1-c1ccc(CBr)cc1
solubility (mole fraction)
Conditions	278.15 K	283.15 K	288.15 K	293.15 K	298.15 K	303.15 K	308.15 K	313.15 K
in acetone	0.0151	0.0169	0.0214	0.0241	0.0306	0.0352	0.0424	0.0492
in n-propanol	0.00052	0.00075	0.00099	0.00126	0.00181	0.00226	0.0027	0.00343
